Data as given in US9518052B2, “Pyrazolopyridines and pyrazolopyrimidines” (Pfizer Inc., priority 2014, dated 2016).
Structures can show the parent of a compound that is named as a salt.

Tested on: rhIFNγ stimulated STAT-3 phosphorylation in the A549 human epithelial cell line
Assay: A549 Cell Assay: Inhibition of pSTAT3
Format: cell-based
Settings: A549 cells
Method: A549 Cell Assay: Inhibition of pSTAT3
An assay measuring the efficacy of JAK inhibitors on the functional response of recombinant human interferon γ (rhIFNγ) stimulated STAT-3 phosphorylation in the A549 human epithelial cell line.
A549 cells (ATCC #CCL-185), were plated at 30,000 cells/well in 96 well flat bottomed tissue culture plates (BD#353072) in 200 μL of growth medium (DMEM, Pfizer media prep, with 10% Fetal Bovine Serum, Sigma #F4135, 2 mM L-Glutamine, Pfizer media prep, 100 U/mL penicillin, Pfizer media prep, and 200 μg/ml streptomycin, Pfizer media prep), and cultured at 37° C., 5% CO2 incubator for 18 hours. Growth medium was removed by vacuum aspiration (V&P Scientific #vp187 bp-60), and 90 μL of pre-warmed assay medium (DMEM with 0.2% BSA, Miltenyi #130-091-376) was added to each well and incubated for 15 minutes at 37° C. 10 μL of vehicle control or test compound (final concentration range of 0.3 nM to 10 μM with 0.1% DMSO) was added to the cells. Plates were incubated at 37° C. for 1 hour. After compound incubation, 10 μL of 220 ng/mL recombinant human IFNγ (R&D Systems #285-IF, final rhIFNγ concentration of 20 ng/mL) was added to the cells and plates were incubated for 30 minutes at 37° C. Wells containing A549 cells, medium with 0.1% DMSO and no rhIFNγ were used as background controls. After rhIFNγ stimulation, media was aspirated from each well and 35 μL/well of iced-cold MSD lysis buffer containing protease and phosphatase inhibitors from Phospho-STAT3 Tyr705 assay kit (Meso-Scale Discovery #K150DID) was added to each well. Plates were incubated at 4° C. with shaking for 30 minutes. Cell lysates were assayed following the MSD Phospho-STAT3 Tyr705 assay kit protocol to detect pSTAT3.
Data were collected and transformed into percent inhibition and calculated using the following formula: […]

IC50 (Homo sapiens) [µM] | Compound | IC50 [µM]
– | CNC(=O)c1n[nH]c2cc(-c3cc(F)c(O)cc3CC(F)(F)F)nc(NCc3c(F)cccc3N(C)S(C)(=O)=O)c12 [Example 18, 6-[5-fluoro-4-hydroxy-2-(2,2,2-trifluoroethyl)phenyl]-4-({2-fluoro-6-[methyl(meth-ylsulfonyl)amino]benz-yl}amino)-N-methyl-1H-pyrazolo[4,3-c]pyridine-3-carboxamide] | 0.097
– | CCS(=O)(=O)N(C)c1ccccc1CNc1nc(-c2cc(F)c(O)cc2CC(F)(F)F)cc2[nH]nc(C(=O)NC)c12 [Example 13] | 0.0967
– | CCc1cc(O)c(F)cc1-c1cc2[nH]nc(C(=O)NC)c2c(NCC2CCCC2)n1 [Example 10, 4-[(cyclopentylmethyl)ami-no]-6-(2-ethyl-5-fluoro-4-hydroxyphenyl)-N-methyl-1H-pyrazolo[4,3-c]pyridine-3-carboxamide] | 0.026
– | CCc1cc(O)c(F)cc1-c1cc2[nH]nc(C(=O)NC)c2c(NCc2cc(C)ccc2N(C)S(C)(=O)=O)n1 [Example 21, 6-(2-ethyl-5-fluoro-4-hydroxyphenyl)-N-methyl-4-({5-methyl-2-[methyl(methylsulfon-yl)amino]benzyl}ami-no)-1H-pyrazolo[4,3-c]pyridine-3-carboxamide] | 0.0356
– | CNC(=O)c1n[nH]c2cc(-c3cc(F)c(O)cc3CC(F)(F)F)nc(NCc3cc(O)ccc3N(C)S(=O)(=O)c3cccnc3)c12 [Example 54, 6-[5-fluoro-4-hydroxy-2-(2,2,2-trifluoroethyl)phenyl]-4-({5-hydroxy-2-[methyl(pyridin-3-ylsulfonyl)amino]ben-zyl}amino)-N-methyl-1H-pyrazolo[4,3-c]pyridine-3-carboxamide] | 0.135
– | CNC(=O)c1n[nH]c2cc(-c3cc(F)c(O)cc3CC(F)(F)F)nc(NCc3cc(F)ccc3N(C)S(C)(=O)=O)c12 [Example 14, 6-[5-fluoro-4-hydroxy-2-(2,2,2-trifluoroethyl)phenyl]-4-({5-fluoro-2-[methyl(methylsulfon-yl)amino]benzyl}ami-no)-N-methyl-1H-pyrazolo[4,3-c]pyridine-3-carboxamide] | 0.0207
1.19 | CN(c1cc(O)ccc1CNc1nc(-c2cc(F)c(O)cc2CC(F)(F)F)cc2[nH]nc(C(N)=O)c12)S(C)(=O)=O [Example 41, 6-[5-Fluoro-4-hydroxy-2-(2,2,2-trifluoroethyl)phenyl]-4-({4-hydroxy-2-[methyl(methylsulfonyl)amino]benzyl}amino)-1H-pyrazolo[4,3-c]pyridine-3-carboxamide] | –
– | CNC(=O)c1n[nH]c2cc(-c3cc(F)c(O)cc3CC(F)(F)F)nc(NCc3cc(O)ccc3N(C)S(=O)(=O)c3ccccc3)c12 [Example 35, 6-[5-fluoro-4-hydroxy-2-(2,2,2-trifluoroethyl)phenyl]-4-({5-hydroxy-2-[methyl(phenylsulfon-yl)amino]benzyl}amino)-N-methyl-1H-pyrazolo[4,3-c]pyridine-3-carboxamide] | 0.437
> 10 | CSCCNc1nc(-c2cc(F)c(O)cc2CC(F)(F)F)cc2[nH]nc(-c3nc4c([nH]3)CCN(Cc3ccccc3)C4)c12 [Example 161, 4-[3-(5-Benzyl-4,5,6,7-tetrahydro-1H-imidazo[4,5-c]pyridin-2-yl)-4-{[2-(methylsulfanyl)-ethyl]amino}-1H-pyrazolo[4,3-c]pyridin-6-yl]-2-fluoro-5-(2,2,2-trifluoroethyl)phenol] | –
13.3 | CN(c1ccccc1CNc1nc(-c2cc(F)c(O)cc2CC(F)(F)F)nc2[nH]nc(-c3nnc(C4CCN(C(=O)CN5CCCC5)CC4)[nH]3)c12)S(C)(=O)=O [Example 168, N-(2-{[(6-[5-Fluoro-4-hydroxy-2-(2,2,2-trifluoroethyl)phenyl]-3-{5-[1-(pyrrolidin-1-ylacetyl)piperidin-4-yl]-4H-1,2,4-triazol-3-yl}-1H-pyrazolo[3,4-d]pyrimidin-4-yl)amino]methyl}phenyl)-N-methylmethanesulfonamide] | –
– | CNC(=O)c1n[nH]c2cc(-c3cc(F)c(O)cc3CC(F)(F)F)nc(NCc3ccccc3N(CCO)S(C)(=O)=O)c12 [Example 24, 6-[5-fluoro-4-hydroxy-2-(2,2,2-trifluoroethyl)phenyl]-4-({2-[(2-hydroxyethyl)-(methylsulfonyl)ami-no]benzyl}amino)-N-methyl-1H-pyrazolo[4,3-c]pyridine-3-carboxamide] | 0.226
– | CCc1cc(O)c(F)cc1-c1cc2[nH]nc(C(=O)NC)c2c(NCc2ccccc2N(C)S(=O)(=O)c2ccccc2)n1 [Example 22, 6-(2-ethyl-5-fluoro-4-hydroxyphenyl)-N-methyl-4-({2-[methyl(phen-ylsulfonyl)amino]ben-zyl}amino)-1H-pyrazolo[4,3-c]pyridine-3-carboxamide] | 0.0528
2.07 | CN(c1ccc(O)cc1CNc1nc(-c2cc(F)c(O)cc2CC(F)(F)F)nc2[nH]nc(C(N)=O)c12)S(C)(=O)=O [Example 97, 6-(5-Fluoro-4-hydroxy-2-(2,2,2-trifluoroethyl)phenyl)-4-((5-hydroxy-2-(N-methylmethylsulfonamido)benzyl)amino)-1H-pyrazolo[3,4-d]pyrimidine-3-carboxamide] | –
– | CNC(=O)c1n[nH]c2cc(-c3cc(F)c(O)cc3CC(F)(F)F)nc(NCc3ccc(O)cc3N(C)S(C)(=O)=O)c12 [Example 33, 6-[5-fluoro-4-hydroxy-2-(2,2,2-trifluoroethyl)phenyl]-4-({4-hydroxy-2-[methyl(methylsulfon-yl)amino]benzyl}amino)-N-methyl-1H-pyrazolo[4,3-c]pyridine-3-carboxamide] | 0.49
– | CCc1cc(O)c(F)cc1-c1cc2[nH]ncc2c(N(CCc2ccc(NS(C)(=O)=O)cc2)Cc2ccccc2N(C)S(C)(=O)=O)n1 [Example 130, N-[2-({[6-(2-ethyl-5-fluoro-4-hydroxyphenyl)-1H-pyrazolo[4,3-c]pyridin-4-yl](2-{4-[(methylsulfon-yl)amino]phenyl}ethyl)amino}methyl)phenyl]-N-methylmethanesulfonamide hydrochloride] | 0.729
– | CCc1cc(O)c(F)cc1-c1cc2[nH]nc(C(=O)NC)c2c(NCCc2ccc(NS(=O)(=O)c3ccccc3)cc2)n1 [Example 23, 6-(2-ethyl-5-fluoro-4-hydroxyphenyl)-N-methyl-4-[(2-{4-[(phenylsulfonyl)-amino]phenyl}ethyl)ami-no]-1H-pyrazolo[4,3-c]pyridine-3-carboxamide] | 0.0514
6.88 | CNC(=O)c1n[nH]c2nc(-c3cc(F)c(O)cc3CC(F)(F)F)nc(NCc3nccnc3N(C)S(C)(=O)=O)c12 [Example 100, 6-(5-Fluoro-4-hydroxy-2-(2,2,2-trifluoroethyl)phenyl)-N-methyl-4-(((3-(N-methylmethyl-sulfonamido)pyrazin-2-yl)methyl)amino)-1H-pyrazolo[3,4-d]pyrimidine-3-carboxamide] | –
– | CCc1cc(O)c(F)cc1-c1cc2[nH]nc(C(=O)NC)c2c(NCc2ccccc2N(CC)S(C)(=O)=O)n1 [Example 9, 6-(2-ethyl-5-fluoro-4-hydroxyphenyl)-4-({2-[ethyl(methylsulfonyl)ami-no]benzyl}amino)-N-methyl-1H-pyrazolo[4,3-c]pyridine-3-carboxamide] | 0.0149
